# Experimental data taken from ChEMBL document CHEMBL3580659, “One-pot multicomponent synthesis of indole incorporated thiazolylcoumarins and their antibacterial, anticancer and DNA cleavage studies” (2015).
# Columns and labels:
# Type in all cases: functional
# Malme-3M [1] = assay: Cytotoxicity against human MALME-3M cells assessed as cell growth level at 100 uM after 48 hrs by sulforhodamine B assay
# OVCAR-8 [2] = assay: Cytotoxicity against human OVCAR8 cells assessed as cell growth level at 100 uM after 48 hrs by sulforhodamine B assay
# ACHN [3] = assay: Cytotoxicity against human ACHN cells assessed as cell growth level at 100 uM after 48 hrs by sulforhodamine B assay
# RXF 393 = assay: Cytotoxicity against human RXF393 cells assessed as cell growth level at 100 uM after 48 hrs by sulforhodamine B assay
# HCT-15 = assay: Cytotoxicity against human HCT15 cells assessed as cell growth level at 10 nM after 48 hrs by sulforhodamine B assay
# SF-295 = assay: Cytotoxicity against human SF295 cells assessed as cell growth level at 10 nM after 48 hrs by sulforhodamine B assay
# SF-539 = assay: Cytotoxicity against human SF539 cells assessed as cell growth level at 10 nM after 48 hrs by sulforhodamine B assay
# UO-31 = assay: Cytotoxicity against human UO31 cells assessed as cell growth level at 10 nM after 48 hrs by sulforhodamine B assay
# PC-3 = assay: Cytotoxicity against human PC3 cells assessed as cell growth level at 10 nM after 48 hrs by sulforhodamine B assay
# DU-145 = assay: Cytotoxicity against human DU145 cells assessed as cell growth level at 10 nM after 48 hrs by sulforhodamine B assay
# LOX IMVI = assay: Cytotoxicity against human LOXIMVI cells assessed as cell growth level at 100 nM after 48 hrs by sulforhodamine B assay
# ACHN [4] = assay: Cytotoxicity against human ACHN cells assessed as cell growth level at 100 nM after 48 hrs by sulforhodamine B assay
# Escherichia coli = assay: Antibacterial activity against Escherichia coli assessed as bacterial growth inhibition at 50 ug/ml after 24 hrs by cup-plate agar diffusion method; settings: read-out: IZ
# CCRF-CEM = assay: Cytotoxicity against human CCRF-CEM cells assessed as cell growth level at 1 uM after 48 hrs by sulforhodamine B assay
# HOP-62 = assay: Cytotoxicity against human HOP62 cells assessed as cell growth level at 1 uM after 48 hrs by sulforhodamine B assay
# HCT-116 = assay: Cytotoxicity against human HCT116 cells assessed as cell growth level at 1 uM after 48 hrs by sulforhodamine B assay
# HCC 2998 = assay: Cytotoxicity against human HCC2998 cells assessed as cell growth level at 10 uM after 48 hrs by sulforhodamine B assay
# SNB-75 = assay: Cytotoxicity against human SNB75 cells assessed as cell growth level at 10 uM after 48 hrs by sulforhodamine B assay
# CAKI-1 = assay: Cytotoxicity against human CAKI-1 cells assessed as cell growth level at 10 uM after 48 hrs by sulforhodamine B assay
# SN12C = assay: Cytotoxicity against human SN12C cells assessed as cell growth level at 10 uM after 48 hrs by sulforhodamine B assay
# Malme-3M [5] = assay: Cytotoxicity against human MALME-3M cells assessed as cell growth level at 1 uM after 48 hrs by sulforhodamine B assay
# OVCAR-4 [6] = assay: Cytotoxicity against human OVCAR4 cells assessed as cell growth level at 1 uM after 48 hrs by sulforhodamine B assay
# OVCAR-8 [7] = assay: Cytotoxicity against human OVCAR8 cells assessed as cell growth level at 1 uM after 48 hrs by sulforhodamine B assay
# A498 = assay: Cytotoxicity against human A498 cells assessed as cell growth level at 1 uM after 48 hrs by sulforhodamine B assay
# HL-60(TB) = assay: Cytotoxicity against human HL-60(TB) cells assessed as cell growth level at 100 uM after 48 hrs by sulforhodamine B assay
# K562 = assay: Cytotoxicity against human K562 cells assessed as cell growth level at 100 uM after 48 hrs by sulforhodamine B assay
# NCI-H460 = assay: Cytotoxicity against human NCI-H460 cells after 48 hrs by sulforhodamine B assay; settings: NCI-H460, 48 h
# NCI-H522 = assay: Cytotoxicity against human NCI-H522 cells after 48 hrs by sulforhodamine B assay; settings: NCI-H522, 48 h
# NCI-H226 = assay: Cytotoxicity against human NCI-H226 cells assessed as cell growth level at 100 uM after 48 hrs by sulforhodamine B assay
# COLO 205 = assay: Cytotoxicity against human COLO205 cells assessed as cell growth level at 100 uM after 48 hrs by sulforhodamine B assay
# SK-MEL-5 = assay: Cytotoxicity against human SK-MEL-5 cells after 48 hrs by sulforhodamine B assay; settings: SK-MEL-5, 48 h
# UACC-257 = assay: Cytotoxicity against human UACC257 cells after 48 hrs by sulforhodamine B assay; settings: UACC-257, 48 h
# OVCAR-4 [8] = assay: Cytotoxicity against human OVCAR4 cells after 48 hrs by sulforhodamine B assay; settings: OVCAR-4, 48 h
# SK-OV-3 = assay: Cytotoxicity against human SKOV3 cells after 48 hrs by sulforhodamine B assay; settings: SK-OV-3, 48 h
# BT-549 = assay: Cytotoxicity against human BT549 cells after 48 hrs by sulforhodamine B assay; settings: BT-549, 48 h
# SR = assay: Cytotoxicity against human SR cells assessed as cell growth level at 10 nM after 48 hrs by sulforhodamine B assay
# HOP-92 = assay: Cytotoxicity against human HOP92 cells assessed as cell growth level at 10 nM after 48 hrs by sulforhodamine B assay
# [9] = read-out: LC50 (the source's name)
# [10] = read-out: pLC50 (the source's name) (converted)
structure (smiles),measurement,setting,value
O=c1oc2ccccc2cc1-c1csc(N/N=C/c2c[nH]c3ccccc23)n1,Activity,Malme-3M [1],-67%
same,Activity,OVCAR-8 [2],-8%
same,Activity,ACHN [3],-45%
same,Activity,RXF 393,-6%
same,Activity,HCT-15,95%
same,Activity,SF-295,93%
same,Activity,SF-539,95%
same,Activity,UO-31,97%
same,Activity,PC-3,105%
same,Activity,DU-145,95%
same,Activity,LOX IMVI,92%
same,Activity,ACHN [4],97%
same,zone of inhibition at 50 µg/mL,Escherichia coli,15 mm
same,Activity,CCRF-CEM,7%
same,Activity,HOP-62,103%
same,Activity,HCT-116,81%
same,Activity,HCC 2998,8.49%
same,Activity,SNB-75,15.44%
same,Activity,CAKI-1,-41.32%
same,Activity,SN12C,0.22%
same,Activity,Malme-3M [5],93%
same,Activity,OVCAR-4 [6],85%
same,Activity,OVCAR-8 [7],94%
same,Activity,A498,61%
same,Activity,HL-60(TB),-23%
same,Activity,K562,-38%
same,GI50,NCI-H460; read-out: GI50,2.84 µM
same,LC50,NCI-H460; read-out: LC50,> 100 µM
same,TGI,NCI-H460; read-out: TGI,9.69 µM
same,GI50,NCI-H460; read-out: pGI50 (converted),2.82 µM
same,LC50,NCI-H460; read-out: pLC50 (converted),> 100 µM
same,TGI,NCI-H460; read-out: pTGI (converted),9.77 µM
same,GI50,NCI-H522; read-out: GI50,1.03 µM
same,LC50 (50% lethal concentration),NCI-H522; read-out: LC50,4.96 µM
same,TGI,NCI-H522; read-out: TGI,2.26 µM
same,GI50,NCI-H522; read-out: pGI50 (converted),1.02 µM
same,LC50 (50% lethal concentration),NCI-H522; read-out: pLC50 (converted),5.01 µM
same,TGI,NCI-H522; read-out: pTGI (converted),2.24 µM
same,Activity,NCI-H226,-31%
same,Activity,COLO 205,-36%
same,GI50,SK-MEL-5; read-out: GI50,2.09 µM
same,CC50,SK-MEL-5; [9],15.2 µM
same,TGI,SK-MEL-5; read-out: TGI,4.97 µM
same,GI50,SK-MEL-5; read-out: pGI50 (converted),2.09 µM
same,CC50,SK-MEL-5; [10],15.1 µM
same,TGI,SK-MEL-5; read-out: pTGI (converted),5.01 µM
same,GI50,UACC-257; read-out: GI50,2.15 µM
same,CC50,UACC-257; [9],> 100 µM
same,TGI,UACC-257; read-out: TGI,5.63 µM
same,GI50,UACC-257; read-out: pGI50 (converted),2.14 µM
same,CC50,UACC-257; [10],> 100 µM
same,TGI,UACC-257; read-out: pTGI (converted),5.62 µM
same,GI50,OVCAR-4 [8]; read-out: GI50,1.37 µM
same,CC50,OVCAR-4 [8]; [9],> 100 µM
same,TGI,OVCAR-4 [8]; read-out: TGI,5.87 µM
same,GI50,OVCAR-4 [8]; read-out: pGI50 (converted),1.38 µM
same,CC50,OVCAR-4 [8]; [10],> 100 µM
same,TGI,OVCAR-4 [8]; read-out: pTGI (converted),5.89 µM
same,GI50,SK-OV-3; read-out: GI50,3.95 µM
same,CC50,SK-OV-3; [9],> 100 µM
same,TGI,SK-OV-3; read-out: TGI,> 100 µM
same,GI50,SK-OV-3; read-out: pGI50 (converted),3.98 µM
same,CC50,SK-OV-3; [10],> 100 µM
same,TGI,SK-OV-3; read-out: pTGI (converted),100 µM
same,GI50,BT-549; read-out: GI50,1.13 µM
same,CC50,BT-549; [9],5.22 µM
same,TGI,BT-549; read-out: TGI,2.43 µM
same,GI50,BT-549; read-out: pGI50 (converted),1.12 µM
same,CC50,BT-549; [10],5.25 µM
same,TGI,BT-549; read-out: pTGI (converted),2.45 µM
same,Activity,SR,94%
same,Activity,HOP-92,100%
